Patent publication US20240415914A1, “Water Dispersible Cannabinoid Compositions” (priority 2021, published 2024)
Read-outs that look alike come from different tables or passages of the source.

Key:
[1] = format: physicochemical; details: stored at room temperature (21-25° C.)
Protocol: At each time period, 0.05 g of powder was dissolved in 10 ml-15 of ethanol, diluted to fall within the analytical range, and injected into the LCMSMS for analysis.

[2] = Stability of cannabinoid and Vitamin E components of Beverage 2 (AB Red) stored at 8° C. and 21-25° C., LCMSMS over 570 days

In the case of `CCCCCc1cc(O)c2c(c1)OC1(C)CCC3C1C2C3(C)C` (stereo not shown) [CBL, cannabicyclol], the “Stability in Powder Concentrate (content by LCMSMS)” value (“Stability in Powder Concentrate” for short) ([1]; day 0) is reported as 0.050 mg/g powder, the “Stability in Powder Concentrate” value ([1]; day 1) is reported as 0.051 mg/g powder and the “Stability in Powder Concentrate” value ([1]; day 2) is reported as 0.049 mg/g powder. For the same compound, the “Stability in Powder Concentrate” value ([1]; day 3) was 0.050 mg/g powder, the “Stability in Powder Concentrate” value ([1]; day 5) was 0.052 mg/g powder and the “Stability in Powder Concentrate” value ([1]; day 8) was 0.050 mg/g powder. The “Stability in Powder Concentrate” value ([1]; day 9) was 0.050 mg/g powder, the “Stability in Powder Concentrate” value ([1]; day 10) was 0.050 mg/g powder and the “Stability in Powder Concentrate” value ([1]; day 11) was 0.052 mg/g powder. For the same compound, the “Stability in Powder Concentrate” value ([1]; day 12) was 0.052 mg/g powder, the “Stability in Powder Concentrate” value ([1]; day 15) was 0.048 mg/g powder and the “Stability in Powder Concentrate” value ([1]; day 16) was 0.049 mg/g powder. For the same compound, the “Stability in Powder Concentrate” value ([1]; day 17) was 0.049 mg/g powder, the “Stability in Powder Concentrate” value ([1]; day 18) was 0.052 mg/g powder and the “Stability in Powder Concentrate” value ([1]; day 19) was 0.052 mg/g powder. For the same compound, the “Stability in Powder Concentrate” value ([1]; day 22) was 0.051 mg/g powder, the “Stability in Powder Concentrate” value ([1]; day 23) was 0.051 mg/g powder and the “Stability in Powder Concentrate” value ([1]; day 24) was 0.050 mg/g powder. The “Stability in Powder Concentrate” value ([1]; day 25) was 0.050 mg/g powder, the “Stability in Powder Concentrate” value ([1]; day 26) was 0.051 mg/g powder and the “Stability in Powder Concentrate” value ([1]; day 29) was 0.048 mg/g powder. The “Stability in Powder Concentrate” value ([1]; day 30) was 0.051 mg/g powder, the “Stability in Powder Concentrate” value ([1]; day 60) was 0.050 mg/g powder and the “Stability in Powder Concentrate” value ([1]; day 90) was 0.050 mg/g powder. For the same compound, the “Stability in Powder Concentrate” value ([1]; day 120) was 0.048 mg/g powder, the “Stability in Powder Concentrate” value ([1]; day 150) was 0.050 mg/g powder and the “Stability in Powder Concentrate” value ([1]; day 180) was 0.049 mg/g powder. The “Stability in Powder Concentrate” value ([1]; day 210) was 0.052 mg/g powder, the “Stability in Powder Concentrate” value ([1]; day 240) was 0.049 mg/g powder and the “Stability in Powder Concentrate” value ([1]; day 270) was 0.051 mg/g powder. For the same compound, the “Stability in Powder Concentrate” value ([1]; day 300) was 0.050 mg/g powder, the “Stability in Powder Concentrate” value ([1]; day 330) was 0.049 mg/g powder and the “Stability in Powder Concentrate” value ([1]; day 360) was 0.050 mg/g powder. For the same compound, the “Stability in Powder Concentrate” value ([1]; day 390) was 0.052 mg/g powder, the “Stability in Powder Concentrate” value ([1]; day 420) was 0.050 mg/g powder and the “Stability in Powder Concentrate” value ([1]; day 450) was 0.052 mg/g powder. The “Stability in Powder Concentrate” value ([1]; day 480) was 0.051 mg/g powder, the “Stability in Powder Concentrate” value ([1]; day 510) was 0.050 mg/g powder and the “Stability in Powder Concentrate” value ([1]; day 540) was 0.048 mg/g powder. The “Stability in Powder Concentrate” value ([1]; day 570) was 0.050 mg/g powder, the “Stability of Cannabinoids in AB Red” value ([2]; 8° C., 0 days) was 0.510 µg/mL and the “Stability of Cannabinoids in AB Red” value ([2]; 8° C., 1 days) was 0.512 µg/mL. The “Stability of Cannabinoids in AB Red” value ([2]; 8° C., 2 days) was 0.508 µg/mL, the “Stability of Cannabinoids in AB Red” value ([2]; 8° C., 3 days) was 0.499 µg/mL and the “Stability of Cannabinoids in AB Red” value ([2]; 8° C., 5 days) was 0.501 µg/mL. For the same compound, the “Stability of Cannabinoids in AB Red” value ([2]; 8° C., 8 days) was 0.496 µg/mL, the “Stability of Cannabinoids in AB Red” value ([2]; 8° C., 9 days) was 0.496 µg/mL and the “Stability of Cannabinoids in AB Red” value ([2]; 8° C., 10 days) was 0.505 µg/mL. The “Stability of Cannabinoids in AB Red” value ([2]; 8° C., 11 days) was 0.501 µg/mL, the “Stability of Cannabinoids in AB Red” value ([2]; 8° C., 12 days) was 0.499 µg/mL and the “Stability of Cannabinoids in AB Red” value ([2]; 8° C., 15 days) was 0.510 µg/mL. The “Stability of Cannabinoids in AB Red” value ([2]; 8° C., 16 days) was 0.502 µg/mL, the “Stability of Cannabinoids in AB Red” value ([2]; 8° C., 17 days) was 0.514 µg/mL and the “Stability of Cannabinoids in AB Red” value ([2]; 8° C., 18 days) was 0.513 µg/mL. For the same compound, the “Stability of Cannabinoids in AB Red” value ([2]; 8° C., 19 days) was 0.510 µg/mL, the “Stability of Cannabinoids in AB Red” value ([2]; 8° C., 22 days) was 0.495 µg/mL and the “Stability of Cannabinoids in AB Red” value ([2]; 8° C., 23 days) was 0.502 µg/mL. For the same compound, the “Stability of Cannabinoids in AB Red” value ([2]; 8° C., 24 days) was 0.508 µg/mL, the “Stability of Cannabinoids in AB Red” value ([2]; 8° C., 25 days) was 0.510 µg/mL and the “Stability of Cannabinoids in AB Red” value ([2]; 8° C., 26 days) was 0.502 µg/mL. For the same compound, the “Stability of Cannabinoids in AB Red” value ([2]; 8° C., 29 days) was 0.511 µg/mL, the “Stability of Cannabinoids in AB Red” value ([2]; 8° C., 30 days) was 0.511 µg/mL and the “Stability of Cannabinoids in AB Red” value ([2]; 8° C., 60 days) was 0.491 µg/mL. The “Stability of Cannabinoids in AB Red” value ([2]; 8° C., 90 days) was 0.501 µg/mL, the “Stability of Cannabinoids in AB Red” value ([2]; 8° C., 120 days) was 0.488 µg/mL and the “Stability of Cannabinoids in AB Red” value ([2]; 8° C., 150 days) was 0.501 µg/mL. For the same compound, the “Stability of Cannabinoids in AB Red” value ([2]; 8° C., 180 days) was 0.506 µg/mL, the “Stability of Cannabinoids in AB Red” value ([2]; 8° C., 210 days) was 0.490 µg/mL and the “Stability of Cannabinoids in AB Red” value ([2]; 8° C., 240 days) was 0.490 µg/mL. For the same compound, the “Stability of Cannabinoids in AB Red” value ([2]; 8° C., 270 days) was 0.504 µg/mL, the “Stability of Cannabinoids in AB Red” value ([2]; 8° C., 300 days) was 0.489 µg/mL and the “Stability of Cannabinoids in AB Red” value ([2]; 8° C., 330 days) was 0.505 µg/mL. The “Stability of Cannabinoids in AB Red” value ([2]; 8° C., 390 days) was 0.491 µg/mL, the “Stability of Cannabinoids in AB Red” value ([2]; 8° C., 420 days) was 0.494 µg/mL and the “Stability of Cannabinoids in AB Red” value ([2]; 8° C., 450 days) was 0.492 µg/mL. The “Stability of Cannabinoids in AB Red” value ([2]; 8° C., 480 days) was 0.487 µg/mL, the “Stability of Cannabinoids in AB Red” value ([2]; 8° C., 510 days) was 0.468 µg/mL and the “Stability of Cannabinoids in AB Red” value ([2]; 8° C., 540 days) was 0.470 µg/mL. For the same compound, the “Stability of Cannabinoids in AB Red” value ([2]; 8° C., 570 days) was 0.469 µg/mL, the “Stability of Cannabinoids in AB Red” value ([2]; 21-25° C., 0 days) was 0.51 µg/mL and the “Stability of Cannabinoids in AB Red” value ([2]; 21-25° C., 1 days) was 0.50 µg/mL. For the same compound, the “Stability of Cannabinoids in AB Red” value ([2]; 21-25° C., 2 days) was 0.50 µg/mL, the “Stability of Cannabinoids in AB Red” value ([2]; 21-25° C., 3 days) was 0.50 µg/mL and the “Stability of Cannabinoids in AB Red” value ([2]; 21-25° C., 5 days) was 0.51 µg/mL. The “Stability of Cannabinoids in AB Red” value ([2]; 21-25° C., 8 days) was 0.50 µg/mL, the “Stability of Cannabinoids in AB Red” value ([2]; 21-25° C., 9 days) was 0.51 µg/mL and the “Stability of Cannabinoids in AB Red” value ([2]; 21-25° C., 10 days) was 0.50 µg/mL. The “Stability of Cannabinoids in AB Red” value ([2]; 21-25° C., 11 days) was 0.50 µg/mL, the “Stability of Cannabinoids in AB Red” value ([2]; 21-25° C., 12 days) was 0.50 µg/mL and the “Stability of Cannabinoids in AB Red” value ([2]; 21-25° C., 15 days) was 0.50 µg/mL. The “Stability of Cannabinoids in AB Red” value ([2]; 21-25° C., 16 days) was 0.51 µg/mL, the “Stability of Cannabinoids in AB Red” value ([2]; 21-25° C., 17 days) was 0.51 µg/mL and the “Stability of Cannabinoids in AB Red” value ([2]; 21-25° C., 18 days) was 0.50 µg/mL. For the same compound, the “Stability of Cannabinoids in AB Red” value ([2]; 21-25° C., 19 days) was 0.49 µg/mL, the “Stability of Cannabinoids in AB Red” value ([2]; 21-25° C., 22 days) was 0.49 µg/mL and the “Stability of Cannabinoids in AB Red” value ([2]; 21-25° C., 23 days) was 0.51 µg/mL. For the same compound, the “Stability of Cannabinoids in AB Red” value ([2]; 21-25° C., 24 days) was 0.50 µg/mL, the “Stability of Cannabinoids in AB Red” value ([2]; 21-25° C., 25 days) was 0.51 µg/mL and the “Stability of Cannabinoids in AB Red” value ([2]; 21-25° C., 26 days) was 0.51 µg/mL. For the same compound, the “Stability of Cannabinoids in AB Red” value ([2]; 21-25° C., 29 days) was 0.49 µg/mL, the “Stability of Cannabinoids in AB Red” value ([2]; 21-25° C., 30 days) was 0.51 µg/mL and the “Stability of Cannabinoids in AB Red” value ([2]; 21-25° C., 60 days) was 0.50 µg/mL. For the same compound, the “Stability of Cannabinoids in AB Red” value ([2]; 21-25° C., 90 days) was 0.49 µg/mL, the “Stability of Cannabinoids in AB Red” value ([2]; 21-25° C., 120 days) was 0.50 µg/mL and the “Stability of Cannabinoids in AB Red” value ([2]; 21-25° C., 150 days) was 0.49 µg/mL. For the same compound, the “Stability of Cannabinoids in AB Red” value ([2]; 21-25° C., 180 days) was 0.50 µg/mL, the “Stability of Cannabinoids in AB Red” value ([2]; 21-25° C., 210 days) was 0.49 µg/mL and the “Stability of Cannabinoids in AB Red” value ([2]; 21-25° C., 240 days) was 0.49 µg/mL. The “Stability of Cannabinoids in AB Red” value ([2]; 21-25° C., 270 days) was 0.49 µg/mL, the “Stability of Cannabinoids in AB Red” value ([2]; 21-25° C., 300 days) was 0.50 µg/mL and the “Stability of Cannabinoids in AB Red” value ([2]; 21-25° C., 330 days) was 0.50 µg/mL. For the same compound, the “Stability of Cannabinoids in AB Red” value ([2]; 21-25° C., 390 days) was 0.49 µg/mL, the “Stability of Cannabinoids in AB Red” value ([2]; 21-25° C., 420 days) was 0.48 µg/mL and the “Stability of Cannabinoids in AB Red” value ([2]; 21-25° C., 450 days) was 0.49 µg/mL. The “Stability of Cannabinoids in AB Red” value ([2]; 21-25° C., 480 days) was 0.48 µg/mL, the “Stability of Cannabinoids in AB Red” value ([2]; 21-25° C., 510 days) was 0.47 µg/mL and the “Stability of Cannabinoids in AB Red” value ([2]; 21-25° C., 540 days) was 0.47 µg/mL. The “Stability of Cannabinoids in AB Red” value ([2]; 21-25° C., 570 days) was 0.47 µg/mL.
